Values of other authors as cited in patent US7772228B2, “Method for treatment of bacterial infections with once or twice-weekly administered rifalazil” (priority 1998, dated 2010).

Tested on: M. tuberculosis strain Erdman
Settings: cited from earlier work; for cell counts in lungs compared to late controls: four weeks treatment

Compound | cell counts in lungs compared to late controls | CFUs in the spleen (rifalazil 20 mg/kg, PZA 150 mg/kg, four weeks)
C[C@H]1COc2c(N3CCN(C)CC3)c(F)cc3c(=O)c(C(=O)O)cn1c23 [LEV] | reduced cell counts in lungs | 
NC(=O)c1cnccn1 [PZA, pyrazinamide] |  | did not significantly reduce CFUs compared to controls
CC[C@@H](CO)NCCN[C@@H](CC)CO [EMB, ethambutol] | reduced cell counts in lungs | 
